Source: ChEMBL document CHEMBL3885881, “DrugMatrix”

Species: Rattus norvegicus
Assay: DrugMatrix - Regimen: Daily Repeat
Format: toxicity, organism-based, Sprague-Dawley
Parameters: regimen Daily Repeat, gender Male, age 6-8 weeks
Settings: in vivo, po, route oral GAVAGE; for ABSOLUTE BASOPHIL / ABSOLUTE EOSINOPHIL / ABSOLUTE LYMPHOCYTE / ABSOLUTE MONOCYTE / ABSOLUTE SEGMENTED NEUTROPHIL / BASOPHIL / EOSINOPHIL / ERYTHROCYTE COUNT / HEMATOCRIT / HEMOGLOBIN / LEUKOCYTE COUNT / LYMPHOCYTE / MEAN CORPUSCULAR HEMOGLOBIN / MEAN CORPUSCULAR HEMOGLOBIN CONCENTRATION / MEAN CORPUSCULAR VOLUME / MONOCYTE / NEUTROPHIL / NUCLEATED RED BLOOD CELLS / PLATELET COUNT: tissue Blood; for ALANINE AMINOTRANSFERASE / ALBUMIN / ALKALINE PHOSPHATASE / ASPARTATE AMINOTRANSFERASE / BLOOD UREA NITROGEN / CARBON DIOXIDE / CHLORIDE / CHOLESTEROL / CREATINE PHOSPHOKINASE / CREATININE / GLUCOSE / LACTATE DEHYDROGENASE / LIPASE / PHOSPHORUS / POTASSIUM / SODIUM / TOTAL BILIRUBIN / TOTAL PROTEIN / URIC ACID: tissue Plasma
[1] = 85 mg/kg, 72 h, dose level Low, time 3 day, vehicle .5 % CMC
[2] = 85 mg/kg, 120 h, dose level Low, time 5 day, vehicle .5 % CMC
[3] = 0 mg/kg, 72 h, dose level Control, time 3 day, […]
[4] = 0 mg/kg, 120 h, dose level Control, time 5 day, […]
[5] = 25 mg/kg, 72 h, dose level Low, time 3 day, […]
[6] = 25 mg/kg, 120 h, dose level Low, time 5 day, […]

CCCN(CCC)C(=O)C(CCC(=O)O)NC(=O)c1ccccc1 (stereo not drawn) [PROGLUMIDE]
ABSOLUTE BASOPHIL [1]: 0 CELLS/uL | ABSOLUTE EOSINOPHIL [1]: 331.33 CELLS/uL | ABSOLUTE LYMPHOCYTE [1]: 13210.67 CELLS/uL | ABSOLUTE MONOCYTE [1]: 258 CELLS/uL | ABSOLUTE SEGMENTED NEUTROPHIL [1]: 933.33 CELLS/uL | BASOPHIL [1]: 0% | EOSINOPHIL [1]: 2.33% | ERYTHROCYTE COUNT [1]: 5.4 x10E6/uL | HEMATOCRIT [1]: 34.93% | HEMOGLOBIN [1]: 13.17 G/DL | LEUKOCYTE COUNT [1]: 14.73 x10E3/uL | LYMPHOCYTE [1]: 89.67% | MEAN CORPUSCULAR HEMOGLOBIN [1]: 24.43 pg | MEAN CORPUSCULAR HEMOGLOBIN CONCENTRATION [1]: 37.7 G/DL | MEAN CORPUSCULAR VOLUME [1]: 64.7 fL | MONOCYTE [1]: 1.67% | NEUTROPHIL [1]: 6.33% | NUCLEATED RED BLOOD CELLS [1]: 0.33 /100WBC | PLATELET COUNT [1]: 1332 x10E3/uL | ALANINE AMINOTRANSFERASE [1]: 42.67 u/L | ALBUMIN [1]: 4.33 G/DL | ALKALINE PHOSPHATASE [1]: 435.67 u/L | ASPARTATE AMINOTRANSFERASE [1]: 72.33 u/L | BLOOD UREA NITROGEN [1]: 16 mg/dL | CARBON DIOXIDE [1]: 25.33 mmol/L | CHLORIDE [1]: 104.33 MEQ/L | CHOLESTEROL [1]: 60.67 mg/dL | CREATINE PHOSPHOKINASE [1]: 288 u/L | CREATININE [1]: 0.18 mg/dL | GLUCOSE [1]: 161.67 mg/dL | LACTATE DEHYDROGENASE [1]: 90.33 u/L | LIPASE [1]: 9 u/L | PHOSPHORUS [1]: 13.33 mg/dL | POTASSIUM [1]: 6.41 MEQ/L | SODIUM [1]: 144.2 MEQ/L | TOTAL BILIRUBIN [1]: 0.23 mg/dL | TOTAL PROTEIN [1]: 5.93 G/DL | URIC ACID [1]: 1.67 mg/dL | ABSOLUTE BASOPHIL [2]: 0 CELLS/uL | ABSOLUTE EOSINOPHIL [2]: 53.33 CELLS/uL | ABSOLUTE LYMPHOCYTE [2]: 15727.33 CELLS/uL | ABSOLUTE MONOCYTE [2]: 190.67 CELLS/uL | ABSOLUTE SEGMENTED NEUTROPHIL [2]: 1162 CELLS/uL | BASOPHIL [2]: 0% | EOSINOPHIL [2]: 0.33% | ERYTHROCYTE COUNT [2]: 5.46 x10E6/uL | HEMATOCRIT [2]: 35.63% | HEMOGLOBIN [2]: 13.3 G/DL | LEUKOCYTE COUNT [2]: 17.13 x10E3/uL | LYMPHOCYTE [2]: 92% | MEAN CORPUSCULAR HEMOGLOBIN [2]: 24.37 pg | MEAN CORPUSCULAR HEMOGLOBIN CONCENTRATION [2]: 37.4 G/DL | MEAN CORPUSCULAR VOLUME [2]: 65.13 fL | MONOCYTE [2]: 1% | NEUTROPHIL [2]: 6.67% | NUCLEATED RED BLOOD CELLS [2]: 0 /100WBC | PLATELET COUNT [2]: 1361 x10E3/uL | ALANINE AMINOTRANSFERASE [2]: 50.67 u/L | ALBUMIN [2]: 4 G/DL | ALKALINE PHOSPHATASE [2]: 346.33 u/L | ASPARTATE AMINOTRANSFERASE [2]: 79 u/L | BLOOD UREA NITROGEN [2]: 17 mg/dL | CARBON DIOXIDE [2]: 24.67 mmol/L | CHLORIDE [2]: 108 MEQ/L | CHOLESTEROL [2]: 61.67 mg/dL | CREATINE PHOSPHOKINASE [2]: 409.67 u/L | CREATININE [2]: 0.19 mg/dL | GLUCOSE [2]: 187 mg/dL | LACTATE DEHYDROGENASE [2]: 92.33 u/L | LIPASE [2]: 8 u/L | PHOSPHORUS [2]: 13.57 mg/dL | POTASSIUM [2]: 5.82 MEQ/L | SODIUM [2]: 144.9 MEQ/L | TOTAL BILIRUBIN [2]: 0.27 mg/dL | TOTAL PROTEIN [2]: 6.03 G/DL | URIC ACID [2]: 1.67 mg/dL

CC(=O)N1CCN(c2ccc(OCC3COC(Cn4ccnc4)(c4ccc(Cl)cc4Cl)O3)cc2)CC1 (stereo not drawn) [KETOCONAZOLE]
ABSOLUTE BASOPHIL [3]: 0 CELLS/uL | BASOPHIL [3]: 0% | NUCLEATED RED BLOOD CELLS [3]: 0 /100WBC | ABSOLUTE BASOPHIL [4]: 0 CELLS/uL | BASOPHIL [4]: 0% | ABSOLUTE BASOPHIL [5]: 0 CELLS/uL | ABSOLUTE EOSINOPHIL [5]: 0 CELLS/uL | ABSOLUTE LYMPHOCYTE [5]: 6183 CELLS/uL | ABSOLUTE MONOCYTE [5]: 155.33 CELLS/uL | ABSOLUTE SEGMENTED NEUTROPHIL [5]: 695 CELLS/uL | BASOPHIL [5]: 0% | EOSINOPHIL [5]: 0% | ERYTHROCYTE COUNT [5]: 5.13 x10E6/uL | HEMATOCRIT [5]: 33.13% | HEMOGLOBIN [5]: 12.97 G/DL | LEUKOCYTE COUNT [5]: 7.03 x10E3/uL | LYMPHOCYTE [5]: 87.67% | MEAN CORPUSCULAR HEMOGLOBIN [5]: 25.3 pg | MEAN CORPUSCULAR VOLUME [5]: 64.73 fL | MONOCYTE [5]: 2% | NEUTROPHIL [5]: 10.33% | NUCLEATED RED BLOOD CELLS [5]: 0 /100WBC | PLATELET COUNT [5]: 1118 x10E3/uL | ALANINE AMINOTRANSFERASE [5]: 90.33 u/L | ALBUMIN [5]: 3.83 G/DL | ALKALINE PHOSPHATASE [5]: 423.67 u/L | ASPARTATE AMINOTRANSFERASE [5]: 89.33 u/L | BLOOD UREA NITROGEN [5]: 12.67 mg/dL | CARBON DIOXIDE [5]: 39 mmol/L | CHLORIDE [5]: 95.33 MEQ/L | CHOLESTEROL [5]: 74 mg/dL | CREATINE PHOSPHOKINASE [5]: 308.67 u/L | CREATININE [5]: 0.15 mg/dL | GLUCOSE [5]: 163.33 mg/dL | LACTATE DEHYDROGENASE [5]: 69.33 u/L | LIPASE [5]: 10 u/L | PHOSPHORUS [5]: 9.63 mg/dL | SODIUM [5]: 136.67 MEQ/L | TOTAL BILIRUBIN [5]: 0.13 mg/dL | TOTAL PROTEIN [5]: 5.53 G/DL | URIC ACID [5]: 0.43 mg/dL | ABSOLUTE BASOPHIL [6]: 0 CELLS/uL | ABSOLUTE EOSINOPHIL [6]: 0 CELLS/uL | ABSOLUTE LYMPHOCYTE [6]: 8189 CELLS/uL | ABSOLUTE MONOCYTE [6]: 181 CELLS/uL | ABSOLUTE SEGMENTED NEUTROPHIL [6]: 1063.33 CELLS/uL | BASOPHIL [6]: 0% | EOSINOPHIL [6]: 0% | ERYTHROCYTE COUNT [6]: 5.6 x10E6/uL | HEMATOCRIT [6]: 34.17% | HEMOGLOBIN [6]: 13.47 G/DL | LEUKOCYTE COUNT [6]: 9.43 x10E3/uL | LYMPHOCYTE [6]: 86.67% | MEAN CORPUSCULAR HEMOGLOBIN [6]: 24.07 pg | MEAN CORPUSCULAR VOLUME [6]: 61.1 fL | MONOCYTE [6]: 2% | NEUTROPHIL [6]: 11.33% | NUCLEATED RED BLOOD CELLS [6]: 0 /100WBC | PLATELET COUNT [6]: 903 x10E3/uL | ALANINE AMINOTRANSFERASE [6]: 74 u/L | ALBUMIN [6]: 4.17 G/DL | ALKALINE PHOSPHATASE [6]: 365.33 u/L | ASPARTATE AMINOTRANSFERASE [6]: 92.33 u/L | BLOOD UREA NITROGEN [6]: 11.33 mg/dL | CARBON DIOXIDE [6]: 29.33 mmol/L | CHLORIDE [6]: 103.67 MEQ/L | CHOLESTEROL [6]: 75 mg/dL | CREATINE PHOSPHOKINASE [6]: 400.67 u/L | CREATININE [6]: 0.26 mg/dL | GLUCOSE [6]: 155 mg/dL | LACTATE DEHYDROGENASE [6]: 99.67 u/L | LIPASE [6]: 11.67 u/L | PHOSPHORUS [6]: 11.1 mg/dL | SODIUM [6]: 144.93 MEQ/L | TOTAL BILIRUBIN [6]: 0.2 mg/dL | TOTAL PROTEIN [6]: 5.93 G/DL | URIC ACID [6]: 0.8 mg/dL
